Data published in article PMC9785231, “Synthesis and Pharmacological Evaluation of Enantiopure N-Substituted Ortho-c Oxide-Bridged 5-Phenylmorphans” (Molecules, 2022).
Where a name gives a salt, the structure may show the parent alone.

Key:
mu-opioid receptor (MOR) = settings: racemate; read-out: mu-opioid receptor affinity Ki; cited from earlier work
κ-opioid receptor (KOR) = target: T1, κ-opioid receptor (KOR) (Rattus norvegicus, UniProt P34975); assay: Opioid receptor binding, KOR ([3H]U69,593), rat brain homogenate; settings: for KOR Binding, activity in exploratory binding assays: 100 nM concentration, displacement of radioligand; for Ki: [3H]U69,593, whole rat brains excluding cerebellum, read-out: KOR Binding (Ki ± SEM)
T1 construct: All assay tubes contained 100 μL homogenate suspension; from tissue; host or cells: whole rat brain excluding cerebellum, membrane homogenate

δ-opioid receptor (DOR) = target: T2, δ-opioid receptor (DOR) (Rattus norvegicus, UniProt P33533); assay: Opioid receptor binding, DOR ([3H]DADLE), rat brain homogenate; settings: for DOR Binding, activity in exploratory binding assays: 100 nM concentration, displacement of radioligand
T2 construct: All assay tubes contained 100 μL homogenate suspension; from tissue; host or cells: whole rat brain excluding cerebellum, membrane homogenate

μ-opioid receptor (MOR) = target: T3, μ-opioid receptor (MOR) (Rattus norvegicus, UniProt P33535); assay: Opioid receptor binding, MOR ([3H]DAMGO), rat brain homogenate; settings: for MOR Binding, activity in exploratory binding assays: 100 nM concentration, displacement of radioligand; for Ki: [3H]DAMGO, whole rat brains excluding cerebellum, read-out: MOR Binding (Ki ± SEM)
T3 construct: All assay tubes contained 100 μL homogenate suspension; from tissue; host or cells: whole rat brain excluding cerebellum, membrane homogenate

in vitro [1] = settings: human, microsomes
[2] = Microsomal metabolic stability, mouse liver microsomes; settings: for Remaining (NCF = 60 min): MLM 0.5, no co-factor (no NADPH); for Remaining (T = 60 min): MLM 0.5, with NADPH
[3] = Microsomal metabolic stability, human liver microsomes; settings: for Remaining (NCF = 60 min): HLM 0.5, no co-factor (no NADPH); for Remaining (T = 60 min): HLM 0.5, with NADPH
in vitro [4] = settings: mouse, microsomes
CYP2D6 = target: T4, CYP2D6 (Homo sapiens, UniProt P10635); assay: P450 inhibition, human liver microsomal CYP2D6; format: in vitro ADME; settings: human, human liver microsomes, read-out: 2D6 %Inhibition
T4 construct: selected human liver microsomal cytochrome P450 isozymes (CYP1A2, CYP2C9, CYP2C19, CYP2D6, and CYP3A); from tissue; host or cells: human liver microsomes
T4 sequence (P10635 whole entry): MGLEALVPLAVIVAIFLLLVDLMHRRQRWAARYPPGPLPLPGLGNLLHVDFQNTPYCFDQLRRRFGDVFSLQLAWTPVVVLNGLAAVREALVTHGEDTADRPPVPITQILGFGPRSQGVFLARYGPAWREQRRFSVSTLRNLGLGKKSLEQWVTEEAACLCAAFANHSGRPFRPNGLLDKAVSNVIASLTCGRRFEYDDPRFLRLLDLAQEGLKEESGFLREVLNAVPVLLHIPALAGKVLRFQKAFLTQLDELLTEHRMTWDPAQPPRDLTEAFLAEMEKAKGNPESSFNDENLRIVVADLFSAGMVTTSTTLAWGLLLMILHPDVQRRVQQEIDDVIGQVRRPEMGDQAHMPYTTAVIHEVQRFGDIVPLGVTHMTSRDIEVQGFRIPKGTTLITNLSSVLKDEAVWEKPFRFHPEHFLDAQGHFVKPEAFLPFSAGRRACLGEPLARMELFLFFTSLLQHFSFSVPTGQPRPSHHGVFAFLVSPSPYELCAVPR

T3 sequence (P33535 whole entry): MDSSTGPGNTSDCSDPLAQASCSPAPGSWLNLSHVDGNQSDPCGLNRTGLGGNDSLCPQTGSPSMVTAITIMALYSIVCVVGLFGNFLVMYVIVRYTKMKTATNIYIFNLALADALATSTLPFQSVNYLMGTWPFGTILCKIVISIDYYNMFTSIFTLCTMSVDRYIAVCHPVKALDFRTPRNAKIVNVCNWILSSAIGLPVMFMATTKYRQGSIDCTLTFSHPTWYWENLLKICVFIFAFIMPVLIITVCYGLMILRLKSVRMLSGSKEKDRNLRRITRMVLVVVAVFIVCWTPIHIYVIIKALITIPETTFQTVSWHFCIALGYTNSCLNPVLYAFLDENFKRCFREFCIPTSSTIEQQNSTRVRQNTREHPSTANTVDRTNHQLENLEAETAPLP
T1 sequence (P34975 whole entry): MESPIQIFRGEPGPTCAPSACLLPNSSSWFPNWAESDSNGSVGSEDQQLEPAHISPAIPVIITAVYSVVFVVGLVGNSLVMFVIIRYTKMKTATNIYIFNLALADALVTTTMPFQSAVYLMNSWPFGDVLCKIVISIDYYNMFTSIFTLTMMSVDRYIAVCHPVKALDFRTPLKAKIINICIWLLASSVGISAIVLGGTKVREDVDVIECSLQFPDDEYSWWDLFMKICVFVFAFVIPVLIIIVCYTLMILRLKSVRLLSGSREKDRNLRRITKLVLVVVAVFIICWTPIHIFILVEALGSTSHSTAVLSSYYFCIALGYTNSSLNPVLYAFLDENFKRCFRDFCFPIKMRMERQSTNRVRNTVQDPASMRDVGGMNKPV
T2 sequence (P33533 whole entry): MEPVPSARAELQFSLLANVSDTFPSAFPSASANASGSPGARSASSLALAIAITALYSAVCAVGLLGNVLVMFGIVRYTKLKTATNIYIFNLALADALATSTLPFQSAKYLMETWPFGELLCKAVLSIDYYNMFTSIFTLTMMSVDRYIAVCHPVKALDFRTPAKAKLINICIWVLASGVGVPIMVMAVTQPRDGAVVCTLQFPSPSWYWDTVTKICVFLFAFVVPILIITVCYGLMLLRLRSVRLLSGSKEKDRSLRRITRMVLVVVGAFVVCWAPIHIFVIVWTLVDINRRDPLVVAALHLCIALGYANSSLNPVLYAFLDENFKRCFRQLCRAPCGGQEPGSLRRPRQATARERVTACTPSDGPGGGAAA

`Oc1cccc2c1O[C@@H]1CN(C[C@@H]3C[C@@H]3c3ccccc3)[C@@H]3CCC[C@]21C3` (as salt: HBr) [(-)-19, (3R,6aS,11aS)-2-(((1R,2S)-2-phenylcyclopropyl)methyl)-1,3,4,5,6,11a-hexahydro-2H-3,6a-methanobenzofuro[2,3-c]azocin-10-ol] showed a melting point of 193.3 to 198.3 °C.

In the case of `Oc1cccc2c1O[C@@H]1CN(C[C@H]3C[C@@H]3c3ccccc3)[C@@H]3CCC[C@]21C3` (as salt: HCl) [(+)-16, (3R,6aS,11aS)-2-(((1S,2S)-2-Phenylcyclopropyl)methyl)-1,3,4,5,6,11a-hexahydro-2H-3,6a-methanobenzofuro[2,3-c]azocin-10-ol], the melting point is reported as 246.6 to 251.6 °C.

Work on `Oc1cccc2c1O[C@H]1CN(C[C@H]3C[C@@H]3c3ccccc3)[C@H]3CCC[C@@]21C3` (as salt: HCl) [(+)-17, (3S,6aR,11aR)-2-(((1S,2S)-2-Phenylcyclopropyl)methyl)-1,3,4,5,6,11a-hexahydro-2H-3,6a-methanobenzofuro[2,3-c]azocin-10-ol] yielded a melting point of 187.2 to 192.2 °C.

In the case of `Oc1cccc2c1O[C@@H]1CN(C[C@H]3C[C@H]3c3ccccc3)[C@@H]3CCC[C@]21C3` (as salt: HCl) [(+)-18, (3R,6aS,11aS)-2-(((1S,2R)-2-Phenylcyclopropyl)methyl)-1,3,4,5,6,11a-hexahydro-2H-3,6a-methanobenzofuro[2,3-c]azocin-10-ol], the melting point is reported as 204.4 to 208.5 °C.

For `Oc1cccc2c1O[C@H]1CN(C[C@H]3C[C@H]3c3ccccc3)[C@H]3CCC[C@@]21C3` (as salt: HCl) [(+)-19, (3S,6aR,11aR)-2-(((1S,2R)-2-Phenylcyclopropyl)methyl)-1,3,4,5,6,11a-hexahydro-2H-3,6a-methanobenzofuro[2,3-c]azocin-10-ol], the melting point was 183.1 to 187.7 °C.

With `Oc1cccc2c1O[C@H]1CN(C[C@@H]3C[C@H]3c3ccccc3)[C@H]3CCC[C@@]21C3` (as salt: HCl) [(-)-16, (3S,6aR,11aR)-2-(((1R,2R)-2-Phenylcyclopropyl)methyl)-1,3,4,5,6,11a-hexahydro-2H-3,6a-methanobenzofuro[2,3-c]azocin-10-ol] the melting point was 252.7 to 256.5 °C.

With `Oc1cccc2c1O[C@@H]1CN(C[C@@H]3C[C@H]3c3ccccc3)[C@@H]3CCC[C@]21C3` (as salt: HCl) [(-)-17, (3R,6aS,11aS)-2-(((1R,2R)-2-Phenylcyclopropyl)methyl)-1,3,4,5,6,11a-hexahydro-2H-3,6a-methanobenzofuro[2,3-c]azocin-10-ol] the melting point was 208.2 to 213.2 °C.

`Oc1cccc2c1O[C@H]1CN(C[C@@H]3C[C@@H]3c3ccccc3)[C@H]3CCC[C@@]21C3` (as salt: HCl) [(-)-18, (3S,6aR,11aR)-2-(((1R,2S)-2-Phenylcyclopropyl)methyl)-1,3,4,5,6,11a-hexahydro-2H-3,6a-methanobenzofuro[2,3-c]azocin-10-ol] gave a melting point of 193.9 to 198.5 °C.

For `Oc1cccc2c1OC1CN(CCc3ccccc3)C3CCCC21C3` (racemic) [(±)-1], the Ki (mu-opioid receptor (MOR)) is listed as 1.1 nM.

In the case of `Oc1cccc2c1O[C@@H]1CN(C[C@H]3C[C@@H]3c3ccccc3)[C@@H]3CCC[C@]21C3` [(+)-16, (3R,6aS,11aS)-2-(((1S,2S)-2-Phenylcyclopropyl)methyl)-1,3,4,5,6,11a-hexahydro-2H-3,6a-methanobenzofuro[2,3-c]azocin-10-ol], the “KOR Binding, activity in exploratory binding assays” value (from here on “KOR Binding, activity”) (κ-opioid receptor (KOR)) is reported as “NT (NT = not tested—inactive (<50% activity at 100 nM concentration in exploratory binding assays (displaced less than half of radioligand))”, the “DOR Binding, activity in exploratory binding assays” value (“DOR Binding, activity” below) (δ-opioid receptor (DOR)) is reported as “NT (NT = not tested—inactive (<50% activity at 100 nM concentration in exploratory binding assays (displaced less than half of radioligand))” and the “MOR Binding, activity in exploratory binding assays” value (“MOR Binding, activity” below) (μ-opioid receptor (MOR)) is reported as “NT (NT = not tested—inactive (<50% activity at 100 nM concentration in exploratory binding assays (displaced less than half of radioligand))”.

With `Oc1cccc2c1O[C@@H]1CN(C[C@H]3C[C@H]3c3ccccc3)[C@@H]3CCC[C@]21C3` [(+)-18, (3R,6aS,11aS)-2-(((1S,2R)-2-Phenylcyclopropyl)methyl)-1,3,4,5,6,11a-hexahydro-2H-3,6a-methanobenzofuro[2,3-c]azocin-10-ol] the “KOR Binding, activity” value (κ-opioid receptor (KOR)) was “NT (NT = not tested—inactive (<50% activity at 100 nM concentration in exploratory binding assays (displaced less than half of radioligand))”, the “DOR Binding, activity” value (δ-opioid receptor (DOR)) was “NT (NT = not tested—inactive (<50% activity at 100 nM concentration in exploratory binding assays (displaced less than half of radioligand))” and the “MOR Binding, activity” value (μ-opioid receptor (MOR)) was “NT (NT = not tested—inactive (<50% activity at 100 nM concentration in exploratory binding assays (displaced less than half of radioligand))”.

With `Oc1cccc2c1O[C@H]1CN(C[C@H]3C[C@H]3c3ccccc3)[C@H]3CCC[C@@]21C3` [(+)-19, (3S,6aR,11aR)-2-(((1S,2R)-2-Phenylcyclopropyl)methyl)-1,3,4,5,6,11a-hexahydro-2H-3,6a-methanobenzofuro[2,3-c]azocin-10-ol] the Ki (κ-opioid receptor (KOR)) was 67.3 ± 7.9 nM, the “DOR Binding, activity” value (δ-opioid receptor (DOR)) was “NT (NT = not tested—inactive (<50% activity at 100 nM concentration in exploratory binding assays (displaced less than half of radioligand))” and the Ki (μ-opioid receptor (MOR)) was 52.4 ± 5.1 nM.

In the case of `Oc1cccc2c1O[C@H]1CN(C[C@@H]3C[C@H]3c3ccccc3)[C@H]3CCC[C@@]21C3` [(-)-16, (3S,6aR,11aR)-2-(((1R,2R)-2-Phenylcyclopropyl)methyl)-1,3,4,5,6,11a-hexahydro-2H-3,6a-methanobenzofuro[2,3-c]azocin-10-ol], the “KOR Binding, activity” value (κ-opioid receptor (KOR)) is reported as “NT (NT = not tested—inactive (<50% activity at 100 nM concentration in exploratory binding assays (displaced less than half of radioligand))”, the “DOR Binding, activity” value (δ-opioid receptor (DOR)) is reported as “NT (NT = not tested—inactive (<50% activity at 100 nM concentration in exploratory binding assays (displaced less than half of radioligand))” and the Ki (μ-opioid receptor (MOR)) is reported as 109 ± 5.5 nM.

With `Oc1cccc2c1O[C@@H]1CN(C[C@@H]3C[C@H]3c3ccccc3)[C@@H]3CCC[C@]21C3` [(-)-17, (3R,6aS,11aS)-2-(((1R,2R)-2-Phenylcyclopropyl)methyl)-1,3,4,5,6,11a-hexahydro-2H-3,6a-methanobenzofuro[2,3-c]azocin-10-ol] the “KOR Binding, activity” value (κ-opioid receptor (KOR)) was “NT (NT = not tested—inactive (<50% activity at 100 nM concentration in exploratory binding assays (displaced less than half of radioligand))”, the “DOR Binding, activity” value (δ-opioid receptor (DOR)) was “NT (NT = not tested—inactive (<50% activity at 100 nM concentration in exploratory binding assays (displaced less than half of radioligand))” and the “MOR Binding, activity” value (μ-opioid receptor (MOR)) was “NT (NT = not tested—inactive (<50% activity at 100 nM concentration in exploratory binding assays (displaced less than half of radioligand))”.

Work on `Oc1cccc2c1O[C@H]1CN(C[C@@H]3C[C@@H]3c3ccccc3)[C@H]3CCC[C@@]21C3` [(-)-18, (3S,6aR,11aR)-2-(((1R,2S)-2-Phenylcyclopropyl)methyl)-1,3,4,5,6,11a-hexahydro-2H-3,6a-methanobenzofuro[2,3-c]azocin-10-ol] yielded a Ki (κ-opioid receptor (KOR)) of 109 ± 16 nM and a Ki (δ-opioid receptor (DOR); [3H]DADLE, whole rat brains excluding cerebellum, read-out: DOR Binding (Ki ± SEM)) of 89 ± 13.4 nM.

For `Oc1cccc2c1O[C@@H]1CN(C[C@@H]3C[C@@H]3c3ccccc3)[C@@H]3CCC[C@]21C3` [(-)-19, (3R,6aS,11aS)-2-(((1R,2S)-2-phenylcyclopropyl)methyl)-1,3,4,5,6,11a-hexahydro-2H-3,6a-methanobenzofuro[2,3-c]azocin-10-ol], the “KOR Binding, activity” value (κ-opioid receptor (KOR)) was “NT (NT = not tested—inactive (<50% activity at 100 nM concentration in exploratory binding assays (displaced less than half of radioligand))”, the “DOR Binding, activity” value (δ-opioid receptor (DOR)) was “NT (NT = not tested—inactive (<50% activity at 100 nM concentration in exploratory binding assays (displaced less than half of radioligand))” and the “MOR Binding, activity” value (μ-opioid receptor (MOR)) was “NT (NT = not tested—inactive (<50% activity at 100 nM concentration in exploratory binding assays (displaced less than half of radioligand))”.

With `O=C(O)Cc1ccccc1Nc1c(Cl)cccc1Cl` [Diclofenac] the CLint scaled (in vitro [1]) was 162 mL/min/kg, the “Remaining (NCF = 60 min)” value [2] was 99.4% and the “Remaining (T = 60 min)” value [2] was 33.5%. The “Remaining (NCF = 60 min)” value [3] was 95.1%, the “Remaining (T = 60 min)” value [3] was 0.4% and the microsomal CLint (in vitro [4]) was 35.4 µL/min/mg.

Work on `C=C[C@H]1C[N@@]2CC[C@H]1C[C@@H]2[C@@H](O)c1ccnc2ccc(OC)cc12` [Quinidine, reference compound] yielded an inhibition at 10 µM (CYP2D6) of 94.2%.

With `C[C@]12CC[C@H]3[C@@H](CCC4=CC(=O)CC[C@@]43C)[C@@H]1CC[C@@H]2O` [Testosterone] the CLint scaled (in vitro [1]) was 96.4 mL/min/kg, the “Remaining (NCF = 60 min)” value [2] was 97.1% and the “Remaining (T = 60 min)” value [2] was 0.0%. The “Remaining (NCF = 60 min)” value [3] was 86.7%, the “Remaining (T = 60 min)” value [3] was 3.9% and the CLint scaled (in vitro [4]) was 1720 mL/min/kg. It also gave a half-life (in vitro [4]) of 3.2 min and a microsomal CLint (in vitro [4]) of 435 µL/min/mg.
